Measurements as given in publication PMC9246766 (Pharmaceutical research, 2022).
Read-outs that look alike come from different tables or passages of the source.

Columns and labels:
[1] = total maximum plasma concentration; ref http://www.micromedexsolutions.com/; cited from earlier work
[2] = cited from earlier work; for FDA product insert: warnings, precautions and major adverse reactions: cardiovascular / CNS related, ref FDA product insert; for Neurological Effects (from Literature): ref Pubmed ID of Table SII; for Neurological side effects: stated in discussion, ref Table SII, 60
OCT3 [3] = biological target: T1, OCT3 (Homo sapiens, UniProt O75751); assay: IC50 determination against OCT3-mediated ASP+ uptake in HEK-293 cells overexpressing OCT3; assay type: cell-based
T1 sequence (O75751 1-556): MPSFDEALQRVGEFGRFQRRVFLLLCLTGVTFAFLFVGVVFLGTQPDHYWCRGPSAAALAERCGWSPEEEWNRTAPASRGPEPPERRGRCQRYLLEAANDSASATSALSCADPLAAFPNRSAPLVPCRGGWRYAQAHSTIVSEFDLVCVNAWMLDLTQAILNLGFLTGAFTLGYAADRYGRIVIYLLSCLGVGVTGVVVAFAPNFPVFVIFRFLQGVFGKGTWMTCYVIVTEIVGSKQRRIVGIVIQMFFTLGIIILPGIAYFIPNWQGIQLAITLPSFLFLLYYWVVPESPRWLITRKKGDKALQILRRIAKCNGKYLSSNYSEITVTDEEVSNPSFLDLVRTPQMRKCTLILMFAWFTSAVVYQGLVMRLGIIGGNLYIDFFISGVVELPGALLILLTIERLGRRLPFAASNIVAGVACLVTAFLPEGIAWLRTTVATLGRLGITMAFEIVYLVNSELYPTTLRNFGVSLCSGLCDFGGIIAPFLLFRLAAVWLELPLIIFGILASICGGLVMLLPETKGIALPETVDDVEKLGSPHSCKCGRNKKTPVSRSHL

OCT3 [4] = biological target: T1, OCT3; assay: IC50 determination against OCT3-mediated [14C]metformin uptake in HEK-293 cells overexpressing OCT3; assay type: cell-based
OCT3 [5] = biological target: T1, OCT3; assay: High throughput screen: inhibition of OCT3-mediated ASP+ uptake in HEK-293 cells stably expressing OCT3; assay type: cell-based; conditions: for inhibition at 20 µM: HEK293
[6] = plasma protein binding used for unbound CMAX; source not given; cited from earlier work

COc1cc(Cc2cnc(N)nc2N)cc(OC)c1OC [trimethoprim]
Cmax [1]: 5.9 µM
FDA product insert: warnings, precautions and major adverse reactions [2]: warnings and precautions related to cardiovascular side-effects
FDA product insert: warnings, precautions and major adverse reactions ([2]; listed as Trimethoprim): Post marketing experience: QT prolongation resulting in ventricular tachycardia and torsade de pointes
Neurological Effects (from Literature) [2]: Trimethoprim/sulfamethaxazole (TMP-SMX) has been reported to be associated with encephalopathy and psychosis
Neurological side effects [2]: neurological side effects

N=C(N)N/N=C/c1c(Cl)cccc1Cl [guanabenz]
IC50 (OCT3 [3]): 3.2 µM
IC50 (OCT3 [4]): 1.1 µM

N=C(N)NC(=O)c1nc(Cl)c(N)nc1N [amiloride]
IC50 (OCT3 [3]): 14.5 µM
IC50 (OCT3 [4]): 3 µM

CCC1=C(C)CN(C(=O)NCCc2ccc(S(=O)(=O)NC(=O)N[C@H]3CC[C@H](C)CC3)cc2)C1=O [glimepiride]
Cmax [1]: 1.2 µM
IC50 (OCT3 [5]): < 5 µM
inhibition at 20 µM (OCT3 [5]): 87.7%
Protein binding [6]: 99%
FDA product insert: warnings, precautions and major adverse reactions [2]: No warnings and precautions regarding to cardiovascular, CNS. However, oral hypoglycemic reagents are known to increase cardiovascular mortality which may be due to hypoglycemia incidence.

C[C@]12C=CC(=O)C=C1CC[C@@H]1[C@@H]2[C@@H](O)C[C@@]2(C)[C@H]1CC[C@]2(O)C(=O)CO [prednisolone]
Cmax [1]: 2.9 µM
IC50 (OCT3 [5]): 9.6 µM
inhibition at 20 µM (OCT3 [5]): 67.5%
Protein binding [6]: 70%
Neurological Effects (from Literature) [2]: Behavirol effects

CNCCCN1c2ccccc2CCc2ccccc21 [desipramine]
IC50 (OCT3 [3]): 177 µM
inhibition at 20 µM (OCT3 [3]; HEK293, read-out: Inhibition of OCT3 activity at 20 μM): < 50%

Cc1c(OCC(F)(F)F)ccnc1C[S+]([O-])c1nc2ccccc2[nH]1 (stereo not drawn) [lansoprazole]
Cmax [1]: 2.9 µM
IC50 (OCT3 [5]): < 5 µM
inhibition at 20 µM (OCT3 [5]): 87.2%
Protein binding [6]: 97%
FDA product insert: warnings, precautions and major adverse reactions [2]: No warnings and precautions regarding to cardiovascular, CNS
Neurological Effects (from Literature) [2]: Increase the risk of dementia

C=C1C[C@@H]2[C@H](CC[C@]3(C)C(=O)CC[C@@H]23)[C@@]2(C)C=CC(=O)C=C12 [exemestane]
Cmax [1]: 1.4 µM
IC50 (OCT3 [5]): < 5 µM
inhibition at 20 µM (OCT3 [5]): 94.5%
Protein binding [6]: 90%
FDA product insert: warnings, precautions and major adverse reactions [2]: No warnings and precautions regarding to cardiovascular, CNS

Cc1oncc1C(=O)Nc1ccc(C(F)(F)F)cc1 [leflunomide]
Cmax [1]: 233 µM
IC50 (OCT3 [5]): 19.6 µM
inhibition at 20 µM (OCT3 [5]): 50.5%
Protein binding [6]: 99.3%
FDA product insert: warnings, precautions and major adverse reactions [2]: No warnings and precautions regarding to cardiovascular, CNS

COCCCOc1ccnc(C[S+]([O-])c2nc3ccccc3[nH]2)c1C (stereo not drawn) [rabeprazole]
Cmax [1]: 1.3 µM
IC50 (OCT3 [5]): < 5 µM
inhibition at 20 µM (OCT3 [5]): 87.3%
Protein binding [6]: 96%
FDA product insert: warnings, precautions and major adverse reactions [2]: No warnings and precautions regarding to cardiovascular, CNS

CC(=O)S[C@@H]1CC2=CC(=O)CC[C@]2(C)[C@H]2CC[C@@]3(C)[C@@H](CC[C@@]34CCC(=O)O4)[C@H]12 [spironolactone]
Cmax [1]: 1.1 µM
IC50 (OCT3 [5]): < 5 µM
inhibition at 20 µM (OCT3 [5]): 82.8%
Protein binding [6]: 93%
FDA product insert: warnings, precautions and major adverse reactions [2]: No warnings and precautions regarding to cardiovascular, CNS
Neurological Effects (from Literature) [2]: Neurotoxicity, lipophilic and cross the blood brain barrier

CCCNCC(O)COc1ccccc1C(=O)CCc1ccccc1 (stereo not drawn) [propafenone]
IC50 (OCT3 [3]): 2.4 µM
IC50 (OCT3 [5]): 7 µM
inhibition at 20 µM (OCT3 [5]): 74%

Cc1onc(-c2ccccc2)c1-c1ccc(S(N)(=O)=O)cc1 [valdecoxib]
Cmax [1]: 2.2 µM
IC50 (OCT3 [5]): 17.3 µM
inhibition at 20 µM (OCT3 [5]): 53.6%
Protein binding [6]: 98%
Neurological Effects (from Literature) [2]: Neuroprotective effect, across bbb

CCCc1nc2c(C)cc(-c3nc4ccccc4n3C)cc2n1Cc1ccc(-c2ccccc2C(=O)O)cc1 [telmisartan]
Cmax [1]: 2.8 µM
IC50 (OCT3 [3]): 12 µM
inhibition at 20 µM (OCT3 [5]): 81.6%
Protein binding [6]: 99.5%
FDA product insert: warnings, precautions and major adverse reactions [2]: No warnings and precautions regarding to cardiovascular, CNS
Neurological Effects (from Literature) [2]: Neuroprotective effect, across bbb
IC50 (OCT3 [4]): 3.9 µM

O=C1CCc2cc(OCCCCc3nnnn3C3CCCCC3)ccc2N1 [cilostazol]
Cmax [1]: 2.1 µM
IC50 (OCT3 [5]): < 5 µM
inhibition at 20 µM (OCT3 [5]): 93.8%
Protein binding [6]: 95%
Neurological Effects (from Literature) [2]: Cilostazol attenuated blood–brain barrier leakage, Cilostazol (CSZ) was recently found to suppress the progression of cognitive decline in patients with stable AD receiving acetylcholinesterase inhibitors

[H]/N=C(\N/C(=N/[H])NCCCCCCNC(=N)NC(=N)Nc1ccc(Cl)cc1)Nc1ccc(Cl)cc1 [chlorhexidine]
IC50 (OCT3 [3]): 3.7 µM
IC50 (OCT3 [4]): 0.4 µM

CC(=O)N1CCN(c2ccc(OCC3COC(Cn4ccnc4)(c4ccc(Cl)cc4Cl)O3)cc2)CC1 (stereo not drawn) [ketoconazole]
Cmax [1]: 1.9 µM
IC50 (OCT3 [3]): 0.42 µM
IC50 (OCT3 [5]): < 5 µM
inhibition at 20 µM (OCT3 [5]): 93.4%
Protein binding [6]: 91%

C=C[C@H]1C[N@@]2CC[C@H]1C[C@H]2[C@H](O)c1ccnc2ccc(OC)cc12 [quinine]
IC50 (OCT3 [3]): 6.6 µM
IC50 (OCT3 [5]): < 5 µM
inhibition at 20 µM (OCT3 [5]): 90.6%
FDA product insert: warnings, precautions and major adverse reactions [2]: warnings and precautions related to cardiovascular side-effects
FDA product insert: warnings, precautions and major adverse reactions ([2]; listed as Quinine): Warnings and precautions: QT prolongation and ventricular arrhythmias. Avoid concomitant use with drugs known to prolong QT interval.

C[C@H]1[C@H](NC(=O)/C(=N\OC(C)(C)C(=O)O)c2csc(N)n2)C(=O)N1S(=O)(=O)O [aztreonam]
Cmax [1]: 585 µM
IC50 (OCT3 [5]): < 5 µM
inhibition at 20 µM (OCT3 [5]): 87.1%
Protein binding [6]: 56%
FDA product insert: warnings, precautions and major adverse reactions [2]: warnings and precautions related to cardiovascular side-effects
FDA product insert: warnings, precautions and major adverse reactions ([2]; listed as Aztreonam): Adverse reaction: Cardiovascular—hypotension, transient ECG changes (ventricular bigeminy and PVC), flushing. Nervous System—seizure, confusion, vertigo, paresthesia, insomnia, dizziness.
Neurological side effects [2]: neurological side effects

COc1ccccc1OCCNCC(O)COc1cccc2[nH]c3ccccc3c12 (stereo not drawn) [carvedilol]
IC50 (OCT3 [3]): 19.7 µM

COc1ccc2[nH]c([S+]([O-])Cc3ncc(C)c(OC)c3C)nc2c1 (stereo not drawn) [omeprazole]
Cmax [1]: 4.2 µM
IC50 (OCT3 [5]): 11.2 µM
inhibition at 20 µM (OCT3 [5]): 64.1%
Protein binding [6]: 95%
FDA product insert: warnings, precautions and major adverse reactions [2]: No warnings and precautions regarding to cardiovascular, CNS
Neurological Effects (from Literature) [2]: Increase the risk of dementia

CC[C@H]1CN2CCc3cc(OC)c(OC)cc3[C@@H]2C[C@@H]1C[C@H]1NCCc2cc(OC)c(OC)cc21 [emetine]
Cmax [1]: 0.6 µM
IC50 (OCT3 [5]): < 5 µM
inhibition at 20 µM (OCT3 [5]): 82.7%
Protein binding [6]: 90%

Cc1ccc(NC(=O)c2ccc(CN3CCN(C)CC3)cc2)cc1Nc1nccc(-c2cccnc2)n1 [imatinib]
Cmax [1]: 1.2 µM

COc1ccc(Cc2nccc3cc(OC)c(OC)cc23)cc1OC [papaverine]
IC50 (OCT3 [3]): 4.1 µM
IC50 (OCT3 [4]): 1.2 µM

COc1cc2nc(N3CCN(C(=O)C4COc5ccccc5O4)CC3)nc(N)c2cc1OC (stereo not drawn) [doxazosin]
IC50 (OCT3 [3]): 5.6 µM
